Test results: patent US6348445B1, “Biologically active peptides with reduced toxicity in animals and a method for preparing same” (priority 1992, dated 2002)
Converted amounts (≈) assume the structure as drawn. Where a SMILES comes first, the peptide text is derived from it. Where no end group is shown, it is not given here. The star is where a group is joined. Octanoyl = CCCCCCCC(=O)*

Experiments:
S. aureus ATCC 29213 = format: cell-based; conditions: ATCC 29213
[1] = tested on: P. aeruginosa strain ATCC 27853; format: cell-based; conditions: for Minimal Inhibitory Concentration P: P. aeruginosa strain ATCC 27853, Table I
Procedure, shortened: (§1)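 Broth microdilution per NCCLS M7-T2: final peptide levels 0.25 to 256 μg/ml (twofold steps), inoculum 1-5×10^5 CFUs/ml in full-strength Mueller Hinton broth. MIC read as lowest concentration leaving the well clear after 16-20 hours at 37° C.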

[2] = tested on: E. coli ATCC strain 25922; assay: Minimal Inhibitory Concentration, microtiter broth dilution; format: cell-based; conditions: for MIC E. coli ATCC 25922: ATCC strain 25922; for Minimal Inhibitory Concentration E: E. coli ATCC strain 25922, Table I
Procedure, shortened: as §1

[3] = MTD of repeat-dose intraperitoneal administration; format: in vivo, SCID mice; conditions: 135 mg/kg/week, three injections per week i.p.
Protocol: Determinations of a maximal tolerated dose (MTD) of repeat-dose intraperitoneal (i.p.) administration of MSI-344 or MSI-1857 in 60 SCID mice were done. Mice were injected with various doses of MSI-344 or MSI-1857 twice or thrice per week. Survival and body weight were monitored. On a twice per week dosing schedule, the MTDs of MSI-344 and MSI-1857 were 12 and 134 mg/kg/week, respectively. […] On a thrice per week dosing schedule, no deaths occurred in any groups, with high dose groups of MSI-344 and MSI-1857 receiving 90 mg/kg/week and […], respectively. A transient body weight loss was seen after initial dosing in most MSI-344 and MSI-1857 groups. No body weight loss greater than 6% occurred in any group on the thrice per week dosing schedule.
To determine estimates of MTDs of MSI-344 and MSI-1857 when administered intraperitoneally on repeat-dose regimens in SCID mice. The selection of SCID mice was based on the future plans of using this strain as host for xenograft human tumor efficacy models, and a pre-requisite for determining MTD for chronic administration that may be used during the efficacy model.
SCID mice are immunocompromised and therefore they were housed and handled in sterile environments. They had access to sterile water and sterilized chow ad lib.
A 1 mg/mL solution of MSI-344 was made in saline (0.9% sodium chloride injection USP, Abbott, North Chicago, Ill.) corrected for peptide content. Solutions of MSI-344 at concentrations of 0.6, 0.3, and 0.1 mg/mL were made by diluting the 1 mg/mL solution using saline as diluent. A 10 mg/mL solution of MSI-1857 was made in saline.
Solutions of MSI-1857 at concentrations of 6.7, 3.3, 3, 2, and 1 mg/mL were made by diluting the 10 mg/mL solution using saline as diluent.
Mice (four mice per dose group) were intraperitoneally administered MSI-344 or MSI-1857 using an injection volume of 10 mL/kg of the appropriate solution concentration on a twice per week (Groups 1 through 7) or thrice per week (Groups 8 through 15) dosing schedule every week for 20 weeks. Survival was monitored daily and body weights were recorded three times per week An interim analysis was performed at 3 weeks and the results of this interim analysis is presented in the present report.

P. gingivalis = conditions: anaerobic, 24-48 hours
S. mutans = assay: anaerobic anti-microbial susceptibility test (MIC); format: cell-based; set-up: unit not given here; conditions: 24-48 hours
C. albicans = format: cell-based; conditions: C. albicans; Table I
Procedure, shortened: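 Broth microdilution: mid-log organisms at 1-5×10^5 CFU/ml in Mueller Hinton broth exposed to 2-fold peptide series (0.25–256 μg/ml final). After 16-20 h at 37° C, MIC read as the lowest concentration leaving the well clear.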

[4] = tested on: S.aureus strain ATCC 25923; assay: Minimal Inhibitory Concentration, microtiter broth dilution; format: cell-based; conditions: Mueller Hinton broth, 16-20 hours at 37° C.
From the text: Table I, which follows, indicates the Minimal Inhibitory Concentration (MIC) in […] of various peptides against S.aureus strain ATCC 25923(S), P. aeruginosa strain ATCC 27853(P), E. coli ATCC strain 25922(E), and C. 4albicans (CA). […] The peptides are unsubstituted at the N-terminal; substituted with an acetyl group at the N-terminal, as indicated by Ac-; substituted with an octanoyl group at the N-terminal, as indicated by Oct-; substituted with spinogosine, as indicated by Sph-; substituted with a succinyl group, as indicated by Suc-; substituted with a hexanoyl group, as indicated by Hex-; substituted with a heptanoyl group, as indicated by Hep-; substituted with a valeryl group, as indicated by Val-; substituted with a myristryl group, as indicated by Myr-; or substituted with an ibuprofyl group, as indicated by Ibu-;
The procedure for the anti-bacterial assay is based upon the guidelines of the National Committee for Clinical Laboratory Standards, Document M7-T2, Volume 8, No. 8, 1988, which document is entirely incorporated herein by reference.
Stock solutions of peptides, with and without the appropriate substitutions, were prepared at a concentration of 512 μg/ml in sterile deionized distilled water and stored at −70° C.
The stock peptide solution was diluted in serial dilutions (1:2) down the wells of a microtiter plate so that the final concentrations of peptides in the wells were 0.25, 0.50, 1, 2, 4, 8, 16, 32, 64, 128 and 256 μg/ml. 1-5×10^5 CFUs/ml of either S. aureus ATCC 25923, E. coli ATCC 25922, P. aeruginosa ATCC 27853, or C. albicans, were added to the wells in full strength Mueller Hinton broth (BBL 11443) from a mid-log culture. The inoculum was standardized spectrophotometrically at 600 nm and was verified by colony counts. The plates were incubated for 16-20 hours at 37° C., and the minimal inhibitory concentration (MIC) for each peptide was determined. Minimal inhibitory concentration is defined as the lowest concentration of peptide which produces a clear well in the microtiter plate. The minimal inhibitory concentration of each of the peptides with and/or without the appropriate substitutions is given in Table I below.

A. viscosus = assay: anaerobic anti-microbial susceptibility test (MIC); format: cell-based; conditions: 24-48 hours

Compound | MIC S. aureus ATCC 29213 (S. aureus ATCC 29213) [µg/mL] | MIC P. aeruginosa ATCC 27853 [1] [µg/mL] | MIC E. coli ATCC 25922 [2] [µg/mL] | lethality [3] | MIC P. gingivalis (strain) 9-14K-1 (P. gingivalis) [μl/ml] | MIC P. gingivalis (strain) 381 (P. gingivalis) [μl/ml] | MIC P. gingivalis (strain) 450 (P. gingivalis) [μl/ml] | MIC P. gingivalis (strain) A7A1-28 (P. gingivalis) [μl/ml] | MIC P. gingivalis (strain) FAY-19M-1 (P. gingivalis) [μl/ml] | Minimal Inhibitory Concentration P [1] [µg/mL] | Minimal Inhibitory Concentration E [2] [µg/mL] | MIC S. mutans (S. mutans) | Minimal Inhibitory Concentration CA (C. albicans) [µg/mL] | Minimal Inhibitory Concentration S [4] [µg/mL] | MIC A. viscos (A. viscosus) [μl/ml]
CC[C@H](C)[C@H](NC(=O)CNCS(=O)(=O)O)C(=O)NCC(=O)N[C@@H](CCCCNCS(=O)(=O)O)C(=O)N[C@@H](Cc1ccccc1)C(=O)N[C@@H](CC(C)C)C(=O)N[C@@H](CCCCNCS(=O)(=O)O)C(=O)N[C@@H](CCCCNCS(=O)(=O)O)C(=O)N[C@@H](C)C(=O)N[C@@H](CCCCNCS(=O)(=O)O)C(=O)N[C@@H](CCCCNCS(=O)(=O)O)C(=O)N[C@@H](Cc1ccccc1)C(=O)NCC(=O)N[C@@H](CCCCNCS(=O)(=O)O)C(=O)N[C@@H](C)C(=O)N[C@@H](Cc1ccccc1)C(=O)N[C@H](C(=O)N[C@@H](CCCCNCS(=O)(=O)O)C(=O)N[C@H](C(=O)N[C@@H](CCSC)C(=O)N[C@@H](CCCCNCS(=O)(=O)O)C(=O)N[C@@H](CCCCNCS(=O)(=O)O)C(N)=O)[C@@H](C)CC)C(C)C | 64 (≈ 18.6 µM) | 64 (≈ 18.6 µM) | 128 (≈ 37.3 µM) |  |  |  |  |  |  |  |  |  |  |  | 
O=S([O-])S(=O)(=O)[O-].[Na+].[Na+] [Sodium metabisulfite, reference compound] |  |  |  | no lethality |  |  |  |  |  |  |  |  |  |  | 
H-KIAKKIAKIAKKIAKIAKKIA-OH [(SEQ ID NO: 86)-OH, (Lys Ile Ala Lys Lys Ile Ala)3] |  |  |  |  | 16 | 16 | 4 | 4 | 8 | 32 | 2 | 16 | 256 | 128 | 32
CCCCCCCC(=O)N[C@@H](CCCCN)C(=O)N[C@H](C(=O)N[C@@H](C)C(=O)N[C@@H](CCCCN)C(=O)N[C@@H](CCCCN)C(=O)N[C@H](C(=O)N[C@@H](C)C(=O)N[C@@H](CCCCN)C(=O)N[C@H](C(=O)N[C@@H](C)C(=O)N[C@@H](CCCCN)C(=O)N[C@@H](CCCCN)C(=O)N[C@H](C(=O)N[C@@H](C)C(=O)N[C@@H](CCCCN)C(=O)N[C@H](C(=O)N[C@@H](C)C(=O)N[C@@H](CCCCN)C(=O)N[C@@H](CCCCN)C(=O)N[C@H](C(=O)N[C@@H](C)C(=O)O)[C@@H](C)CC)[C@@H](C)CC)[C@@H](C)CC)[C@@H](C)CC)[C@@H](C)CC)[C@@H](C)CC [Oct-(SEQ ID NO: 86)-OH] (Octanoyl-KIAKKIAKIAKKIAKIAKKIA-OH) |  |  |  |  | 1 | 1 | 1 | 1 | 1 | 4 | 2 | 16 | 128 | 8 | 32
GIGKFLKKAKKFGKAFVKIMKK-NH2 [SEQ ID NO: 155-NH2] | 16 | 32 | 16 |  |  |  |  |  |  |  |  |  |  |  | 
